Experimental findings from the supplement of paper PMC12592484 are described below.

Experiment in all cases: drug sensitivity score (DSS2, normalised partial AUC of dose-response, 72 h CellTiter-Glo viability) (DSS (dimensionless)); higher = more sensitive (stronger growth inhibition / cytotoxicity); extreme values may be limits of the assay
Background: ATP-based viability assays read luminescence as a measure of living cells.

The subject of one experiment is WPMY-1. The method in brief: (§1)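 Low-passage primary prostate cancer-associated fibroblasts, PF179T, WPMY-1, LNCaP and 22Rv1 cells were seeded into 384-well plates carrying pre-dispensed compounds at five doses covering a 10,000-fold range. After 72 h, viability was read by CellTiter-Glo 2.0 luminescence. Responses were scaled to vehicle and positive-control wells. The drug sensitivity score (DSS2) is a partial area under the fitted logistic dose–response curve divided by the log of its upper asymptote, computed in BREEZE; higher means more sensitive.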

In another experiment the test system is CAF#5 (primary prostate cancer-associated fibroblasts of myCAF-like type). In outline:
as §1

The subject of another experiment is LNCAP. The method in brief: as §1
The subject of a further experiment is CAF#2 (primary prostate cancer-associated fibroblasts of iCAF-like type). In outline:
as §1

The next experiment concerns CAF#1 (primary prostate cancer-associated fibroblasts of myCAF-like type). The method in brief:
as §1

The next experiment has as its system CAF#6 (primary prostate cancer-associated fibroblasts of iCAF-like type). The method in brief:
as §1

The test system of the next experiment is CAF#3 (primary prostate cancer-associated fibroblasts of myCAF-like type). The method in brief:
as §1

The test system of a further experiment is CAF#7 (primary prostate cancer-associated fibroblasts of myCAF-like type). In outline: as §1
For another experiment, the system named is PF179T. In outline:
as §1

The subject of a further experiment is 22Rv1. The method in brief:
as §1

A further experiment concerns CAF#4 (primary prostate cancer-associated fibroblasts of iCAF-like type). In outline: as §1

For the compound `COc1cc2nccc(Oc3ccc(NC(=O)Nc4cc(C)on4)c(Cl)c3)c2cc1OC` [Tivozanib] (tested concentration range 1-10000 nM), the drug sensitivity score is 4.6 in the experiment with WPMY-1; 6.9 with CAF#5; 4.8 in the experiment on LNCAP; 7.7 with CAF#2; 6.2 with CAF#1; 4.2 in the experiment with CAF#6. In addition, the drug sensitivity score in the experiment on CAF#3 was found to be 6; with CAF#7 it was 6; with PF179T it was 3; in the experiment with 22Rv1, 1.6; in the experiment with CAF#4, 4.6.
Regarding `CNC(=O)[C@@H](NC(=O)[C@H](CC(C)C)[C@H](O)C(=O)NO)C(C)(C)C` [Marimastat] (tested concentration range 1-10000 nM), the drug sensitivity score in the experiment on WPMY-1 stood at 0.4; in the experiment on CAF#5, 0; in the experiment on LNCAP, 0; in the experiment on CAF#2, 0; with CAF#1, 0; in the experiment on CAF#6, 0. The drug sensitivity score was 0.6 with CAF#3; 0 in the experiment on CAF#7; 0 in the experiment with PF179T; 0 in the experiment on 22Rv1; 0 with CAF#4.
Turning to `O=c1sn(-c2cccc3ccccc23)c(=O)n1Cc1ccccc1` [Tideglusib] (tested concentration range 0.3-3000 nM), the drug sensitivity score in the experiment on WPMY-1 came out at 0; with CAF#5 it was 0; with LNCAP, 0; with CAF#2, 0.8; in the experiment with CAF#1 it was 0; with CAF#6 it was 2.3. In addition, the drug sensitivity score in the experiment on CAF#3 is 0; with CAF#7, 1.6; with PF179T it was 0; in the experiment on 22Rv1 it was 0; with CAF#4, 0.
In the case of `C#Cc1cccc(Nc2ncnc3cc4c(cc23)OCCOCCOCCO4)c1` [Icotinib] (tested concentration range 1-10000 nM), the drug sensitivity score in the experiment on WPMY-1 turned out to be 0; in the experiment with CAF#5 it was 0; in the experiment on LNCAP it was 0; in the experiment with CAF#2, 0; in the experiment with CAF#1 it was 0.3; in the experiment on CAF#6 it was 0. For the same compound, the drug sensitivity score worked out at 2.3 with CAF#3; 0 with CAF#7; 0 in the experiment with PF179T; 0.7 with 22Rv1; 0 in the experiment on CAF#4.
As for `Cc1c(-c2c(-c3ccc(F)o3)sc3ncnc(O[C@H](Cc4ccccc4OCc4ccnn4CC(F)(F)F)C(=O)O)c23)ccc(OCCN2CCN(C)CC2)c1Cl` (tested concentration range 0.1-1000 nM), the drug sensitivity score in the experiment with WPMY-1, in the experiment with CAF#5, with LNCAP, in the experiment on CAF#2, in the experiment with CAF#1 and with CAF#6 was 0 throughout. Besides, the drug sensitivity score in the experiment on CAF#3 turned out to be 0; in the experiment with CAF#7, 0; in the experiment on PF179T it was 0; in the experiment on 22Rv1, 0.7; with CAF#4 it was 0.
As for `CC1(C)NC(=O)N(c2ccc([N+](=O)[O-])c(C(F)(F)F)c2)C1=O` [Nilutamide] (tested concentration range 1-10000 nM), the drug sensitivity score worked out at 0 with WPMY-1; 0 with CAF#5; 2.9 in the experiment with LNCAP; 0.1 in the experiment on CAF#2; 0.1 with CAF#1; 0 in the experiment on CAF#6. Also, the drug sensitivity score in the experiment on CAF#3 amounted to 0; in the experiment on CAF#7 it was 0; in the experiment with PF179T, 0; in the experiment on 22Rv1, 0; with CAF#4, 2.7.
On to `O=C(c1ccc(C(=O)N2CCC(N3CCCC3)CC2)c(Nc2ccccc2)c1)N1CCC(N2CCCC2)CC1` [UNC1215] (tested concentration range 1-10000 nM), for which the drug sensitivity score in the experiment on WPMY-1, in the experiment with CAF#5, with LNCAP, in the experiment with CAF#2, with CAF#1 and in the experiment on CAF#6 was 0 throughout. Also, the drug sensitivity score with CAF#3, in the experiment on CAF#7, with PF179T, with 22Rv1 and in the experiment on CAF#4 was 0 in each case.
With `Cn1cnc2c(F)c(Nc3ccc(Br)cc3F)c(C(=O)NOCCO)cc21` [Binimetinib] (tested concentration range 0.1-1000 nM), the drug sensitivity score with WPMY-1 was determined as 0.9; in the experiment on CAF#5 it was 0.8; with LNCAP it was 0; in the experiment on CAF#2, 2.2; in the experiment with CAF#1, 0; in the experiment on CAF#6 it was 0. The drug sensitivity score with CAF#3 is 0; with CAF#7, 0.2; in the experiment with PF179T, 0; in the experiment with 22Rv1 it was 8.7; with CAF#4 it was 0.
`CC(C)N(CCCNC(=O)Nc1ccc(C(C)(C)C)cc1)C[C@H]1O[C@@H](n2cc(Br)c3c(N)ncnc32)[C@H](O)[C@@H]1O` [SGC0946] (tested concentration range 1-10000 nM): the drug sensitivity score with WPMY-1 came to 2.2; with CAF#5, 0; in the experiment on LNCAP, 2.1; in the experiment on CAF#2, 0; with CAF#1, 0.2; in the experiment on CAF#6, 0.1. The drug sensitivity score came to 0.5 in the experiment on CAF#3; 1.2 in the experiment with CAF#7; 0 in the experiment on PF179T; 1.6 with 22Rv1; 0.8 in the experiment on CAF#4.
Take `Oc1ccc2c(c1)CC[C@H](c1ccccc1)[C@@H]2c1ccc(OCCN2CCCC2)cc1` [Lasofoxifene] (tested concentration range 0.1-1000 nM): the drug sensitivity score was determined as 0 in the experiment on WPMY-1; 1.3 in the experiment with CAF#5; 0 in the experiment with LNCAP; 0 with CAF#2; 0 in the experiment with CAF#1; 0 in the experiment with CAF#6. Moreover, the drug sensitivity score in the experiment with CAF#3, in the experiment on CAF#7, with PF179T, in the experiment on 22Rv1 and in the experiment on CAF#4 was 0 each time.
For `CC(=O)c1cc2c(o1)C(=O)c1ccccc1C2=O` [Napabucasin] (tested concentration range 2-20000 nM), the drug sensitivity score in the experiment with WPMY-1 stood at 19.8; in the experiment on CAF#5 it was 11.7; in the experiment on LNCAP it was 19.5; with CAF#2 it was 22.6; with CAF#1 it was 11.2; with CAF#6, 16.8. In addition, the drug sensitivity score in the experiment on CAF#3 is 16.4; with CAF#7, 9.5; with PF179T it was 21; with 22Rv1, 17.7; in the experiment on CAF#4, 22.4.
For the compound `O=C(O)C(=O)O.[NH-][C@@H]1CCCC[C@H]1[NH-].[Pt+2]` [Oxaliplatin] (tested concentration range 10-100000 nM), the drug sensitivity score with WPMY-1 came to 9; in the experiment with CAF#5, 9.4; in the experiment on LNCAP, 26.1; in the experiment with CAF#2 it was 10.6; with CAF#1, 9.7; with CAF#6 it was 7.3. In addition, the drug sensitivity score in the experiment with CAF#3 was 8.3; in the experiment with CAF#7 it was 7.4; in the experiment on PF179T, 8.8; in the experiment on 22Rv1, 13.8; in the experiment on CAF#4, 9.1.
